Experimental findings from patent publication US10166270B2, “Composition and method for affecting cytokines and NF-κB” (priority 2004, dated 2019) are described below.

In experiment [1] the test system is carrageenan-induced paw edema. In words: Carrageenan-induced paw edema. It counts as in vivo, rat. The source says: The carrageenan-induced paw edema assay was used as an in vivo indicator of the anti-inflammatory effects of the phyto-percolate. Carrageenan induces local inflammation and edema when injected into the paw pad of a rat (Di Rosa et al., 1971). The development of paw edema is believed to be biphasic (Vinegar et al., 1969). The initial phase is attributable to the local release of histamine and serotonin (Crunkhon et al., 1971) and the second phase is caused by prostaglandin release as a result of COX activation. […] Each treatment group is compared to control.

The subject of a further experiment is IL-17A. Description: ELISA of cytokine secretion by PBMC: IL-17A. It is filed as cell-based, human. Particulars: PMA added to cultured PBMC. As to the method: (§1) According to this exemplary embodiment, phyto-percolate and the flow-through/F4 were tested as they appeared in their original concentrations right off the columns, only diluted 1:20 and 1:100 as described herein. The culture of peripheral blood mononuclear cells (“PBMC”) is prepared with two vials of frozen PBMCs that were obtained from normal healthy human subjects by a commercial vendor and were added to 2×10 ml medium and centrifuged. PBMCs were resuspended and cultured in RPMI1640/5% FBS for 24 h. (1 vial of frozen cells in 11 ml medium).
(§2) Treatment agents for this exemplary method comprise three agents: unseparated phyto-percolate (‘PAZ’), fraction 3 (‘F3’), fraction 4 (‘F4’). Treatment concentration for each was 1:20 & 1:100. […]
(§3) According to this exemplary embodiment, seeding, treatment, and detection is accomplished by the following steps. Two dishes of PBMCs were combined and the small amount of PBMCs was stained with 0.4% Trypan blue and the cell number of PBMCs was counted using known techniques.
(§4) In this embodiment, an enzyme linked immunosorbent assay (“ELISA”) analysis of inflammatory cytokine secretion, a protocol provided in a commercial kit for the parallel quantification of the production of human cytokines was employed. […]

Another experiment has as its system IFN-γ. Description: ELISA of cytokine secretion by PBMC: IFN-γ. It is filed as cell-based, human. Particulars: PMA added to cultured PBMC. As for the experimental part: as §1, §2, §3, §4
The next experiment deals with GM-CSF. In words: ELISA of cytokine secretion by PBMC: GM-CSF. It counts as cell-based, human. Particulars: PMA added to cultured PBMC. As to the method: as §1, §2, §3, §4
Another experiment concerns TNF-α. Description: ELISA of cytokine secretion by PBMC: TNF-α. It is filed as cell-based, human. The note with it: PMA added to cultured PBMC. As for the experimental part:
as §1, §2, §3, §4

Another experiment deals with IL-2. In words: ELISA of cytokine secretion by PBMC: IL-2. It counts as cell-based, human. Particulars: PMA added to cultured PBMC (with ionomycin). As to the method:
as §1, §2, §3, §4

For the next experiment, the target named is T1, human COX-2 (Homo sapiens, UniProt P35354).
T1 construct: host or cells: Sf21 insect cells
T1 sequence (P35354 18-604): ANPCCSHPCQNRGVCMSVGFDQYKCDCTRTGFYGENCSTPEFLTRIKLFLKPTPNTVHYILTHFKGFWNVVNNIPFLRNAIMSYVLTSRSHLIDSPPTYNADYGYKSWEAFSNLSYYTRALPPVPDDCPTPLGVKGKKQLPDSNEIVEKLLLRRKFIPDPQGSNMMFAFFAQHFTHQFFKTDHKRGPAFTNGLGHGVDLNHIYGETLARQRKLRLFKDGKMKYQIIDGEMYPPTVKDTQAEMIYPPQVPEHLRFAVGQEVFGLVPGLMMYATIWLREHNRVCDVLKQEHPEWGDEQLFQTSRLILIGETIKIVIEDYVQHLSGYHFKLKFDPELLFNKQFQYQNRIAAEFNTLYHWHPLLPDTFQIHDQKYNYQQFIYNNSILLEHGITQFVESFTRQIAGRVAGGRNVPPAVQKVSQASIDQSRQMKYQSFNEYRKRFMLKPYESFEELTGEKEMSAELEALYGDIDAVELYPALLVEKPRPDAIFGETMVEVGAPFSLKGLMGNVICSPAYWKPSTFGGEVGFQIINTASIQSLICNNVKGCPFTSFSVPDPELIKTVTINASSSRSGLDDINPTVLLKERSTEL
Description: in vitro COX-2 inhibition (arachidonic acid to PGE2, EIA). It counts as biochemical. Particulars: read-out: % COX-2 Inhibition (Individual assay values). As for the experimental part:
Three separate preparations of the phyto-percolate were screened, using an in vitro assay, for COX-2 inhibition. Riendeau et al., Can. J. Physiol. […] Briefly, this assay measured to conversion of 0.3 μM arachidonic acid to PGE2 by human recombinant insect Sf21 cells expression human COX-2. The incubation buffer contained 100 mM Tris-HCl (pH 7.7), 1 mM glutathione, 1 μM hematin, and 500 μM phenol. PGE2 was quantified using an enzyme-linked immunoassay (EIA).
Sample 1 was a sample of diluted phyto-percolate concentrated approximately 100-fold by drying under N2. Sample 2 was prepared by drying a 4800 μl sample of diluted phyto-percolate under N2 and reconstituting it in 96 μl of ddH2O just prior to assay. Sample 3 was prepared by lyophilizing a 4800 μl sample of diluted phyto-percolate and reconstituting it in 96 μl of ddH2O just prior to assay. The concentrations of phyto-percolate used, 100×, 10×, and IX, refer to 10 μl, 1 μl, and 0.1 μl of sample, respectively, in a final assay volume of 100 μl. […] Each sample was assayed in at least three concentrations and the assays were performed in duplicate.

Another experiment relates to NF-κB. Description: EMSA of DNA-binding activity of NF-κB in cultured PBMC. It counts as cell-based, human. The note with it: TNF-α (50 ng/ml) added one hour before harvesting. As for the experimental part:
as §1
Treatment agents for this exemplary method comprise three agents: unseparated phyto-percolate (‘PAZ’), fraction 3 (‘F3’), fraction 4 (‘F4’). Treatment concentration for each was 1:20 & 1:100. An exemplary sample preparation method for each agent by dilution is as follows: First, a 1:10 dilution is prepared by combining 0.7 ml agent (either PAZ, F3 or F4)+6.3 ml RPMI1640/5% FBS to obtain a total volume of 7 ml of a 1:10 solution. […]
Analysis of the effect of phyto-percolate or fractions isolated therefrom on the DNA-binding activity of NF-κB in the nuclear protein fractions of the cultured PBMC was determined as follows in this exemplary embodiment: approximately 18.26 mL of suspended PBMC were added to approximately 18 mL of culture medium and 2 mL of this cell suspension (2,718,000 cells in 2 mL) were seeded into each 60 mm culture dish. […]

[2] abbreviates: 0 hours, oral dose 30 min before carrageenan, n=6.

`CC(=O)Oc1ccccc1C(=O)O` [Aspirin, aspirin]: the “paw volume, % change from control” value in experiment [1] (0 hours) was “(1%)”; in experiment [1] (2 hours) it was “(4%)”; in experiment [1] (4 hours), “(−10%)”; in experiment [1] (6 hours) it was “(−20%)”; in experiment [1] (8 hours), “(−25%)”; in experiment [1] (20 hours) it was “(−23%)”. Besides, the “Mean paw volume ± SD” value was 1.25 ± 0.08 mL in experiment [1] (setting [2]); 2.22 ± 0.28 mL in experiment [1] (2 hours); 2.07 ± 0.23 mL in experiment [1] (4 hours); 1.92 ± 0.18 mL in experiment [1] (6 hours); 1.80 ± 0.18 mL in experiment [1] (8 hours); 1.42 ± 0.16 mL in experiment [1] (20 hours).
Turning to `COc1ccc2c(c1)c(CC(=O)O)c(C)n2C(=O)c1ccc(Cl)cc1` [Indomethacin, indomethacin], the “paw volume, % change from control” value is reported as “(1%)” in experiment [1] (0 hours); “(7%)” in experiment [1] (2 hours); “(1%)” in experiment [1] (4 hours); “(−12%)” in experiment [1] (6 hours); “(−22%)” in experiment [1] (8 hours); “(−38%)” in experiment [1] (20 hours). The “Mean paw volume ± SD” value was found to be 1.25 ± 0.05 mL in experiment [1] (setting [2]); 2.25 ± 0.23 mL in experiment [1] (2 hours); 2.18 ± 0.22 mL in experiment [1] (4 hours); 2.00 ± 0.22 mL in experiment [1] (6 hours); 1.83 ± 0.23 mL in experiment [1] (8 hours); 1.37 ± 0.10 mL in experiment [1] (20 hours).
In the case of `CCCCCCCCCCCCCC(=O)O[C@@H]1[C@@H](C)[C@@]2(O)[C@@H](C=C(CO)C[C@]3(O)C(=O)C(C)=C[C@@H]23)[C@@H]2C(C)(C)[C@]12OC(C)=O` [PMA, phorbol myristate acetate], the “secretion of IL-17A” value in the experiment with IL-17A is given as “approximately 3 pg/100,000 cells”. The “secretion of IFN-γ” value in the experiment with IFN-γ is recorded as “approximately 70 pg/100,000 cells”. The “secretion of GM-CSF” value in the experiment on GM-CSF is given as “approximately 50 pg/100,000 cells”. Further, the “secretion of TNF-α” value in the experiment with TNF-α is on record as “approximately 50 pg/100,000 cells”. The “secretion of IL-2” value with IL-2 was “approximately 125 pg/100,000 cells”.
`CS(=O)(=O)c1ccc(C2=C(c3ccccc3)C(=O)OC2)cc1` [rofecoxib]: on human COX-2, the inhibition at 0.01 µM stood at 11%, the inhibition at 0.03 µM stood at 16%, the inhibition at 0.1 µM came to 33% and the inhibition at 0.3 µM turned out to be 55%. Besides, the inhibition at 1 µM on human COX-2 amounted to 88%.
Take TNF-α: the “DNA-binding activity of NF-κB, relative level (control = 1.0)” value in the experiment on NF-κB was roughly 2.0.
